Results as given in US8329676B2, “Cycloalkane-containing sphingosine 1-phosphate agonists” (University of Virginia Patent Foundation, priority 2005, dated 2012).

Experiments:
blood lymphocytes = experiment: Lymphopenia assay; format: in vivo, mice
Method: Pro-drug compounds (i.e., primary alcohols such as VPC01091) are dissolved in 2% hydroxypropyl beta-cyclodextrin and introduced into mice by oral gavage at doses from 0.01 to 30 mg/kg body weight. After 24 hours (or multiples thereof), the mice are lightly anesthetized and ca. 0.1 ml of blood is drawn from the orbital sinus. The number of lymphocytes (in thousands per microliter of blood; normal is 4-11) is determined using a Hemavet blood analyzer. In the histogram showing the four isomers of VPC01091, the 100% value for the vehicle treated mouse was 7.5 at 24 hours; at 96 hours it was 5. There were three mice/group, the strain was mixed sv129×C57BL/6. Active compounds (e.g., VPC01211) are dissolved in acidified DMSO at 20 mM, and diluted 1:20 into 2% hydroxypropyl beta-cyclodextrin in water with mixing. This solution is introduced into mice by intraperitoneal (i.p.) injection at doses of 0.01-10 mg/kg body weight.
FIG. 3 describes total blood lymphocyte count following single dose of VPC01091 or vehicle. […] Five mice per group, male, 10-11 week old sv129/C57B16 strain.
A dose response curve for VPC01091 in the lymphopenia assay is given as FIG. 4. FIG. 4 graphically summarizes oral administration (gavage) of VPC01091 in 2% hydroxypropyl beta-cyclodextrin, 3 mice per group (same strain as in FIG. 3).
This phosphorylation of these compounds is thought to be catalyzed in vivo by sphingosine kinase type 2 (SPHK2), which is encoded by the SPHK2 gene in mice.

Heart rate assay = format: in vivo; conditions: mice, intravenous, 3 mg/kg (FIG. 2)
Method: In the assay the test compound was administered via IV Dosing and the vehicle was 2% cyclodextrin.
Mice were dosed with VPC01091 (intravenous, 3 mg/kg) or vehicle (2% hydroxypropyl beta-cyclodextrin) and heart rate measured at the indicated times post dosing. Heart rate was captured in unrestrained, conscious animals using the ECGenie™ system.

human S1P1 receptor = target: T1, human S1P1 receptor (Homo sapiens, UniProt P21453); experiment: GTPγS-35 binding assay, S1P1; format: biochemical; conditions: relative to S1P (FIG. 6)
T1 construct: expressed in transfected cells; host or cells: HEK293T (crude microsomes)
Method: This assay illustrates agonist activation of G protein coupled receptors (GPCRs) in isolation. The assay forces expression concomitantly of a recombinant GPCR (e.g., the S1P1-5 receptor) and each of the three subunits (typically, alphai2, beta1, gamma2) of a heterotrimeric G protein in a HEK293T cell by transfecting the cell with four plasmid DNAs encoding the respective proteins. About 60 hours after transfection the cells are harvested, opened, and the nucleus discarded. This allows for the preparation of a crude microsome from the remainder. Agonist (e.g., S1P) stimulation of the receptor-G protein complex on the microsomes results in the exchange of GTP for GDP on the alpha subunit in a dose-dependent manner. To detect the GTP-bound alpha subunit, we use a GTP analog (GTPγS-35), which is a radionuclide (sulfur-35) labeled phosphothionate, that is not hydrolyzed to GDP. The microsomes with the adherent G proteins are collected by filtration and the bound GTPγS-35 quantified in a liquid scintillation counter. […] Antagonist activity is detected as rightward shifts in the agonist dose-response curve in the presence of a fixed amount of antagonist. If the antagonist behaves competitively, the affinity of the receptor/antagonist pair (K1) can be determined.

[1] = target: T2, human S1P type 3 (S1P3) receptor (Homo sapiens, UniProt Q99500); experiment: GTPγS-35 binding assay, S1P3; format: biochemical
T2 construct: expressed in transfected cells; host or cells: HEK293T (crude microsomes)
Method: The assay forces expression concomitantly of a recombinant GPCR (e.g., the S1P1-5 receptor) and each of the three subunits (typically, alphai2, beta1, gamma2) of a heterotrimeric G protein in a HEK293T cell by transfecting the cell with four plasmid DNAs encoding the respective proteins. About 60 hours after transfection the cells are harvested, opened, and the nucleus discarded. This allows for the preparation of a crude microsome from the remainder. Agonist (e.g., S1P) stimulation of the receptor-G protein complex on the microsomes results in the exchange of GTP for GDP on the alpha subunit in a dose-dependent manner. To detect the GTP-bound alpha subunit, we use a GTP analog (GTPγS-35), which is a radionuclide (sulfur-35) labeled phosphothionate, that is not hydrolyzed to GDP. The microsomes with the adherent G proteins are collected by filtration and the bound GTPγS-35 quantified in a liquid scintillation counter. The assay yields relative potency (EC50 values) and maximum effect (efficacy, Emax). Antagonist activity is detected as rightward shifts in the agonist dose-response curve in the presence of a fixed amount of antagonist. If the antagonist behaves competitively, the affinity of the receptor/antagonist pair (K1) can be determined.

human S1P4 receptor = target: T3, human S1P4 receptor (Homo sapiens, UniProt O95977); experiment: GTPγS-35 binding assay, S1P4; format: biochemical; conditions: FIG. 10
T3 construct: expressed in transfected cells; host or cells: HEK293T (crude microsomes)
Text: (§1) FIG. 10 graphically illustrates the results of a broken cell GTPγ^35S binding assay for the human S1P4 receptor. Compound ‘CA5-P’ is VPC01211. Compounds CA6-P and CA4-P are the corresponding cyclohexyl and cyclobutyl compounds.
(§2) This assay illustrates agonist activation of G protein coupled receptors (GPCRs) in isolation. The assay forces expression concomitantly of a recombinant GPCR (e.g., the S1P1-5 receptor) and each of the three subunits (typically, alphai2, beta1, gamma2) of a heterotrimeric G protein in a HEK293T cell by transfecting the cell with four plasmid DNAs encoding the respective proteins. About 60 hours after transfection the cells are harvested, opened, and the nucleus discarded. This allows for the preparation of a crude microsome from the remainder. Agonist (e.g., S1P) stimulation of the receptor-G protein complex on the microsomes results in the exchange of GTP for GDP on the alpha subunit in a dose-dependent manner. […] The microsomes with the adherent G proteins are collected by filtration and the bound GTPγS-35 quantified in a liquid scintillation counter. […] Antagonist activity is detected as rightward shifts in the agonist dose-response curve in the presence of a fixed amount of antagonist. If the antagonist behaves competitively, the affinity of the receptor/antagonist pair (K1) can be determined.

human S1P5 receptor = target: T4, human S1P5 receptor (Homo sapiens, UniProt Q9H228); experiment: GTPγS-35 binding assay, S1P5; format: biochemical; conditions: FIG. 11
T4 construct: expressed in transfected cells; host or cells: HEK293T (crude microsomes)
Text: FIG. 11 graphically illustrates the results of a broken cell GTPγ^35S binding assay for the human S1P5 receptor. Compound ‘CA5-P’ is VPC01211. Compounds CA6-P and CA4-P are the corresponding cyclohexyl and cyclobutyl compounds.
as §2

human S1P3 receptor [2] = target: T5, human S1P3 receptor (Homo sapiens, UniProt Q99500); experiment: Calcium mobilization assay in T24 cells overexpressing S1P3; format: cell-based; set-up: expressed in transfected cells; conditions: 10 μM test compound, FIG. 15
Method: FIG. 15 is an illustration of the result of a calcium mobilization assay in T24 cells overexpressing the human S1P3 receptor in response to […] S1P in the presence of 10 μM VPC01211.

human S1P2 receptor [3] = target: T6, human S1P2 receptor (Homo sapiens, UniProt O95136); experiment: GTPγS-35 binding assay, S1P2; format: biochemical; set-up: expressed in transfected cells; host or cells: HEK293T (crude microsomes); conditions: FIG. 8
Text: as §1, with “8” for “10”, “S1P2” for “S1P4”, “compounds. The ordinate represents percent GTPγ^35S binding and the abscissa represents log molar concentration of lipid.” for “compounds.”
as §2, with “remainder.” for “remainder. Agonist (e.g., S1P) stimulation of the receptor-G protein complex on the microsomes results in the exchange of GTP for GDP on the alpha subunit in a dose-dependent manner.”

human S1P2 receptor [4] = target: T6, human S1P2 receptor; experiment: Calcium mobilization assay, CHO-K1 cells expressing S1P2; format: cell-based; set-up: expressed in transfected cells; host or cells: hamster CHO-K1, clonal population; conditions: FIG. 7
Method: FIG. 7 graphically illustrates the results of a calcium mobilization assay using CHO-K1 cells expressing recombinant human S1P2 receptor. […] The ordinate represents percent maximal calcium mobilization and the abscissa represents log molar concentration of lipid.
(§3) To measure calcium mobilization in response to agonist stimulation, cells were plated onto a 96 well plate, loaded with the calcium sensing dye Fluo-4AM and cells exposed to various concentrations of agonist for 3-5 minutes. Changes in fluorescence, which correlate with intracellular calcium mobilization, are detected using a FlexStation fluorimeter. Each agonist concentration was tested in triplicate.
FIG. 7: CHOK1 cells transfected with S1P2 receptor DNA

human S1P3 receptor [5] = target: T5, human S1P3 receptor; experiment: Calcium mobilization assay, CHO-K1 cells expressing S1P3; format: cell-based; set-up: expressed in transfected cells; host or cells: hamster CHO-K1, clonal population; conditions: FIG. 9
Method: FIG. 9 graphically illustrates the results of a calcium mobilization assay using CHO-K1 cells expressing recombinant human S1P3 receptor.
as §3

human S1P3 receptor [6] = target: T5, human S1P3 receptor; experiment: Schild plot of S1P dose response curves at S1P3; format: biochemical; set-up: expressed in transfected cells; host or cells: hamster CHO-K1, clonal population; conditions: FIGS. 12-14
Text: FIG. 12 is an illustration of a Schild plot for the results of S1P dose response curves at the human S1P3 receptor, at the indicated concentrations of test compound VPC01222.
FIG. 13 is an illustration of a Schild plot for the results of S1P dose response curves at the human S1P3 receptor, at the indicated concentrations of test compound VPC01211.
FIG. 14 is an illustration of a Schild plot for the results of S1P dose response curves at the human S1P3 receptor, at the indicated concentrations of test compound VPC01214.
as §2, with “discarded.” for “discarded. This allows for the preparation of a crude microsome from the remainder. Agonist (e.g., S1P) stimulation of the receptor-G protein complex on the microsomes results in the exchange of GTP for GDP on the alpha subunit in a dose-dependent manner.”

T5 sequence (Q99500 whole entry): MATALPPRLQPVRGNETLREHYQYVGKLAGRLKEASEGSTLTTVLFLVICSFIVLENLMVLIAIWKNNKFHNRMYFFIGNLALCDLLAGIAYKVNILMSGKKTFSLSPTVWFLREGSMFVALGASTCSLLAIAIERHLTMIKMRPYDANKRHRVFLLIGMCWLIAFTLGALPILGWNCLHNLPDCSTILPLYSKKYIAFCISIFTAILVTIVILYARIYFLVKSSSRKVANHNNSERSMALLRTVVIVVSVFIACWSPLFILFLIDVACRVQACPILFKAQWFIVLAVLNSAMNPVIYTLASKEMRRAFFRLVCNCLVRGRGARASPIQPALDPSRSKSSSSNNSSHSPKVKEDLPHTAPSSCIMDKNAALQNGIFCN
T6 sequence (O95136 whole entry): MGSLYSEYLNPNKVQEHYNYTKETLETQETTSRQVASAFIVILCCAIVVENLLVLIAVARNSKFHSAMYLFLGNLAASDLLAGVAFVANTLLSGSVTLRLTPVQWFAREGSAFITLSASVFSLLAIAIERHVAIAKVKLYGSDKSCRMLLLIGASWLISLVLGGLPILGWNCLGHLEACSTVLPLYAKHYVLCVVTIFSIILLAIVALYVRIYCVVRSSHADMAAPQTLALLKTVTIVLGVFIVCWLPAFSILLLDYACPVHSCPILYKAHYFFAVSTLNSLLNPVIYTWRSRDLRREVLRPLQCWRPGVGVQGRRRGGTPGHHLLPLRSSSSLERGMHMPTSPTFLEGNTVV
T2 sequence (Q99500 whole entry): as the sequence (Q99500 whole entry) above
T4 sequence (Q9H228 whole entry): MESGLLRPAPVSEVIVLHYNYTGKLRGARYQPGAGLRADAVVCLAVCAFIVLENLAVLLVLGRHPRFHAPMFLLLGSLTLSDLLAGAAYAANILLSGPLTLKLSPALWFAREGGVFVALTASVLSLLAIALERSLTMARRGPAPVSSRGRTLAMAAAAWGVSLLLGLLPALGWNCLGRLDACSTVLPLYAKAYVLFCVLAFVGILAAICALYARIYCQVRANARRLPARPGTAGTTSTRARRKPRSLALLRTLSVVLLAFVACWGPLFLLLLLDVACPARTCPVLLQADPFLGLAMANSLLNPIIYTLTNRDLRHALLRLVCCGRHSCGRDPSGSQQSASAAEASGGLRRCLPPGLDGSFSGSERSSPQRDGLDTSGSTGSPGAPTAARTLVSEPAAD
T4 sequence (P04899 2-355 partner limits assumed): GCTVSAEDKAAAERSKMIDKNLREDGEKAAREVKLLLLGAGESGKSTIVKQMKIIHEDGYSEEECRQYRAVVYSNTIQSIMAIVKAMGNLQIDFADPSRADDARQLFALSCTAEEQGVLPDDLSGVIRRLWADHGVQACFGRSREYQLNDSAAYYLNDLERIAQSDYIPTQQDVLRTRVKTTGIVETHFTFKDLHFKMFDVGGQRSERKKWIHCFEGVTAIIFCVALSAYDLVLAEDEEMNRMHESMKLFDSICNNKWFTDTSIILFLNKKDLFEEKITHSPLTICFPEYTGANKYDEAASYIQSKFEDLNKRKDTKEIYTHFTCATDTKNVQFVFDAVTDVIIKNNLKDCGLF
T4 sequence (P62873 2-340 partner limits assumed): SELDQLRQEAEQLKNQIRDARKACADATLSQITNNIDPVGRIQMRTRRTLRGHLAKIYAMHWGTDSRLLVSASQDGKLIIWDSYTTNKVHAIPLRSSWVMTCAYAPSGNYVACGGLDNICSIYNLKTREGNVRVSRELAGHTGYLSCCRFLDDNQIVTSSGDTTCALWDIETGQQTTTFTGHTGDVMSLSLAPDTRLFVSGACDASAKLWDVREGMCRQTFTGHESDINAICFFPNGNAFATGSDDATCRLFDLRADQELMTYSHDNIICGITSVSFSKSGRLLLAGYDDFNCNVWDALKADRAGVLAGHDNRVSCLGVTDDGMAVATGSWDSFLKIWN
T4 sequence (P59768 2-68 partner limits assumed): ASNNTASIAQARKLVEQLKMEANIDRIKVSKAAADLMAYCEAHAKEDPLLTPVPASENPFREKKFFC
T1 sequence (P21453 whole entry): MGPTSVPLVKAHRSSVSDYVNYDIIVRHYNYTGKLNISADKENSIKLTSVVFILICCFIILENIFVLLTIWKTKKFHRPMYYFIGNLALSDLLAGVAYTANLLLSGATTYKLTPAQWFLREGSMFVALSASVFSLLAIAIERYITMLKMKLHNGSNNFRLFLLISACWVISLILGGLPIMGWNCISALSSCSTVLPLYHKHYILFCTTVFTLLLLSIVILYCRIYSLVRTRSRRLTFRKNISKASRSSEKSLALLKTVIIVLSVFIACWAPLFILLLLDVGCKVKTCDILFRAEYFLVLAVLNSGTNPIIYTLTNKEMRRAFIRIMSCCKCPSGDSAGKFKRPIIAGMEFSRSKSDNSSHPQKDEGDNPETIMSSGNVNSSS
T1 sequence (P04899 2-355 partner limits assumed): as the sequence (P04899 2-355 partner limits assumed) above
T1 sequence (P62873 2-340 partner limits assumed): as the sequence (P62873 2-340 partner limits assumed) above
T1 sequence (P59768 2-68 partner limits assumed): as the sequence (P59768 2-68 partner limits assumed) above
T3 sequence (O95977 whole entry): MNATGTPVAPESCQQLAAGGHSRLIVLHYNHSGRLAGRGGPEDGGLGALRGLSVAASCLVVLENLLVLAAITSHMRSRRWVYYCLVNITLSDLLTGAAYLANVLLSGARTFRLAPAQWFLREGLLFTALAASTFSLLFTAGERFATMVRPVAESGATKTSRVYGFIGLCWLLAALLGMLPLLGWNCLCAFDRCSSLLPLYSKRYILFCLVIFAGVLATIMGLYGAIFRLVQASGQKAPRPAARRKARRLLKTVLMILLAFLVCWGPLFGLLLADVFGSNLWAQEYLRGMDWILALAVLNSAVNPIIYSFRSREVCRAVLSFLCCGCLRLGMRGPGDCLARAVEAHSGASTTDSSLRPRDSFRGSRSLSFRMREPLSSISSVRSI
T3 sequence (P04899 2-355 partner limits assumed): as the sequence (P04899 2-355 partner limits assumed) above
T3 sequence (P62873 2-340 partner limits assumed): as the sequence (P62873 2-340 partner limits assumed) above
T3 sequence (P59768 2-68 partner limits assumed): as the sequence (P59768 2-68 partner limits assumed) above

agonist activity at the S1P1 receptor (human S1P1 receptor)	activity at the S1P3 receptor (GTPγS binding) [1]	agonist activity at the S1P4 receptor (human S1P4 receptor)	agonist activity at the S1P5 receptor (human S1P5 receptor)	antagonism at S1P3 (rightward shift of S1P calcium response) (human S1P3 receptor [2])	activity at the S1P2 receptor (GTPγS binding) (human S1P2 receptor [3])	activity at the S1P2 receptor (calcium mobilization) (human S1P2 receptor [4])	activity at the S1P3 receptor (calcium mobilization) (human S1P3 receptor [5])	antagonism at S1P3 (rightward shifts in the S1P dose response curves) (human S1P3 receptor [6])	SMILES	lymphopenia (total blood lymphocyte count) (blood lymphocytes; mice, oral gavage, single dose, 2% hydroxypropyl beta-cyclodextrin (FIG. 3))	duration of lymphopenia (blood lymphocytes; mice, single ED95 dose)	lymphopenia in mice without a functional SPHK2 gene (blood lymphocytes; single oral dose, 24 hours (FIG. 5))	effect on heart rate (Heart rate assay)
–	–	–	–	–	–	–	–	–	CCCCCCCCc1ccc(C2CCC(N)(CO)C2)cc1 (stereo not shown) [VPC01091, (1-amino-3-(4-octylphenyl)cyclopentyl)methanol]	profound, long lasting lymphopenia	lymphopenia for a week or more	no lymphopenia was observed	no effect on the heart rate
partial agonists	negative, or inverse, agonists	full agonists	partial agonists	surmountable antagonism	inactive	inactive	inactive	surmountable antagonist	CCCCCCCCc1ccc(C2CCC(N)(COP(=O)(O)O)C2)cc1 (stereo not shown) [VPC01211, (1-amino-3-(4-octylphenyl)cyclopentyl)methyl dihydrogen phosphate]	–	–	–	–
